We go through twelve compounds from patent US20230271956A1, “AMIDE DERIVATIVES” (Merck Patent GmbH, priority 2020, published 2023).

The target in series [1] is T1, human rec ACSS2 (Homo sapiens, UniProt Q9NR19).
T1 construct: myc (C); purchased Origene
Nature of the series: Biochemical activity ACSS2 assay (AMP-Glo). Particulars: human recombinant ACSS2, AMP-Glo, 180 min at 37° C. A digest of the protocol:
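C-terminal myc-tagged human recombinant ACSS2 (1 nM) reacted with 100 µM ATP, 100 µM CoA and 500 µM acetate (final) in pH 7.5 Hepes buffer for 180 min at 37° C, compound in 10 concentrations from 30 µM. Released AMP detected by AMP-Glo luminescence. IC50 normalised to inhibitor-free reaction and 5 µM reference inhibitor.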

The target in series [2] is T2, ACSS2 (Homo sapiens, UniProt Q9NR19).
T2 construct: endogenous fatty acid synthesis activity in the human HCT-15 cancer cell line; endogenous in cells; host or cells: HCT-15
T2 sequence (Q9NR19 whole entry): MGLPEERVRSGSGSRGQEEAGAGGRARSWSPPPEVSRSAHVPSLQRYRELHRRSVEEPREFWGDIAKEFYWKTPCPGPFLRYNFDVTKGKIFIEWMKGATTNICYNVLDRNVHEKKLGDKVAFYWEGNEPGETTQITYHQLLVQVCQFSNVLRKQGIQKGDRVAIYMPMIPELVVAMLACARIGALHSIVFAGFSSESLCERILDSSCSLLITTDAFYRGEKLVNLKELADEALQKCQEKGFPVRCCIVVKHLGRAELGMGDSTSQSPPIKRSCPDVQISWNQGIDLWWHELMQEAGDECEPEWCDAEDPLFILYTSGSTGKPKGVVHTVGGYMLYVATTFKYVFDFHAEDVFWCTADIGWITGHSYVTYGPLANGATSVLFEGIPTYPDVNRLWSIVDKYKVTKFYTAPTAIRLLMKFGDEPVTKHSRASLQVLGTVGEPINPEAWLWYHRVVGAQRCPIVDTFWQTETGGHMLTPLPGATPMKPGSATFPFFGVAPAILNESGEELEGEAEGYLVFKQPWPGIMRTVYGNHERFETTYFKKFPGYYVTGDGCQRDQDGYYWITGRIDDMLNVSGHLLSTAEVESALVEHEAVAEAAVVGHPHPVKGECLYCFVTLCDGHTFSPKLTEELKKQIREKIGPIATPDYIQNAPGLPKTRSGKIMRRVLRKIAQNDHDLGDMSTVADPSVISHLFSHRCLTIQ
Nature of the series: Cellular assay of 14C acetate incorporation into histones (IC50 ACSS2 cellular histone). Particulars: HCT-15 cells. The class given is cell-based. The essentials: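 Human HCT-15 cells preincubated 1 h with compound (0.25% DMSO final), then pulsed 3 h with 14C-acetate. Histones were acid-extracted (0.2 M HCl, overnight, 4° C) after Triton lysis in sodium-butyrate buffer; incorporated 14C counted by liquid scintillation (CPM) to give IC50.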

Series [3] relates to CHO-K1 cells. Put plainly: Micronucleus assay (MNT) in vitro. On the set-up: key: A: negative, putative negative (micronuclei detected beyond threshold of 60% cyctotoxicity); B: positive. Particulars: 24 hrs treatment, 0.2 µM to 100 µM. The class given is cell-based. The procedure: The in vitro MNT assay is performed in CHO-K1 cells due to their stable and welI-characterized karyotype, high sensitivity and suitability for a high content imaging approach. They have a basal spontaneous micronucleus frequency of 3-4%.
24 hrs after plating CHO-K1 cells are treated with test compounds for 24 hrs (in duplicates; fixed concentration ranges from 0.2 µM to 100 µM in 2-fold dilution steps). After a medium change cells are incubated for 24 hrs with Cytochalasin B to block cytokinesis and are then fixed and nuclei / micronuclei visualized with a DNA stain. Images are acquired with the Molecular Devices high content imagers IXU or IXM and are analyzed with the dedicated MetaXpress software micronucleus module. Criteria for scoring of micronuclei (MN) are the following: • diameter of the MN should be less than ⅓ of the main nucleus • MN should be separated from or marginally overlap with main nucleus (= no blebs) • MN should have similar staining as the main nucleus At least 1000 binucleated cells are evaluated per treatment replicate. Mitomycin C is used as reference stimulator of micronucleus formation. Cytotoxicity is evaluated in parallel and defined by comparing total nuclei count in compound-treated samples to neutral control samples treated with vehicle only (1% DMSO) (100% cytotoxicity means all cells are dead or lost).
A test compound is regarded as POSITIVE if generation of micronuclei and exhibition of less than 60% cytotoxicity at the same concentration can be observed.
Compounds are scored only in the soluble concentration range. Experimental data of the compounds shown in Table 1 in the MNT assay are shown in Table 2 below and classified in the following groups: […]

Series [4] concerns the target T2, ACSS2. Nature of the series: Cellular assay of 14C acetate incorporation into fatty acids (IC50 ACSS2 cellular lipids). The format is cell-based. Particulars: HCT-15 cells. How it is done:
This protocol describes a cellular assay capable to quantify endogenous fatty acid synthesis activity in the human HCT-15 cancer cell line following the incorporation of extracellularly administered radiolabeled ^14C acetate with a scintillation proximity based read out on extracted fatty acids.
HCT-15 cells were grown in RPMI 1640 (Gibco) supplemented with 2 mM glutamine, 1 mM sodium pyruvate 10 mM HEPES and 10 % FCS (heat-inactivated) passaged every 2-3 days to remain a subconfluent, vital culture. A working cell bank was prepared with each aliquot containing 1x10^7 viable cells. After thawing, these cells are dilute immediately 1:20 in pre-warmed (37° C.) culture medium. Cells are collected by centrifugation at 200 x g for 5 min, and the supernatant is replaced by 30 mL of fresh culture medium per aliquot to obtain a cell suspension containing 350000 cells/ml. From this cell suspension 100 µL are dispersed into each well of a collagen coated 96 well plate, (black, clear bottom, PS, F-bottom, Greiner) and culture for 24 h (37° C., 5% CO2). After incubation the culture medium is removed and the wells are washed once with 100 µL PBS++ (supplemented with Mg^2+/ Ca^2+, Gibco) and 50 µL assay medium (RPMI 1640 + 10 mM HEPES) are added to each well. Compounds serial dilutions are prepared from 10 mM stock solutions in DMSO using a fixed dilution factor (usually 1:3). After preparation of the dilution series in DMSO, the individual dilutions are further diluted in the assay medium. This working dilution is prepared such, that the concentration is 7x of the final concentration in the assay. The maximal DMSO concentration in the final assay is 0.1%.
To each well 10 µL compound working dilution or DMSO blank are added and the cells are cultured for 2 h (37° C., 5% CO2). Then 10 µL AlamarBlue reagent (Invitrogen) containing 14 µCi/mL ^14C-acetate (Perkin Elmer) are added to each well (70 µl total volume) and cells are again cultured for 2 h. Cell viability is verified by measuring the AlamarBlue fluorescence (Tecan Safire, ex: 544 nm / em: 590 nm). After incubation the culture medium is removed and the wells are carefully washed once with cold 100 µL PBS++. For cell lysis and fatty acid recovery 50 µl 0.1 M NaOH and 0.1 % Triton-X100 are added per well. The plate is sealed with PlateLoc (clear peelable heat seal, Agilent) and incubate at 70° C. for 16-24 h. After cooling to room temperature, the plates are centrifuged for 1 min at 1000 rpm and the plate seals are removed. For acidification 150 µL 0.1 M HCl are added to each well, mixed and 150 µL of the mixture are transferred into a 96 well FlashPlate (Perkin Elmer). The plates are sealed with TopSeaI-a (Perkin Elmer). To allow for the fatty acid binding to the well surfaces the plates are incubate for 4 h at 70° C. After cooling to room temperature, the plates are centrifuged for 1 min at 1000 rpm and stored for 0.5-2 h at room temperature in the dark. Radioactivity from ^14C incorporation into fatty acids in the wells is measured as CPM count in a MicroBeta scintillation counter (Perkin Elmer).

T1 sequence (Q9NR19 whole entry): as above

In general, IC50 refers to the midpoint of a concentration-inhibition curve. In the case of `CCc1c(C(O)(c2ccccc2F)c2ccccc2F)nn2cc(OC)c(C(=O)Nc3ncn(CC)n3)cc12` [Compound 7, 2-[Bis-(2-fluoro-phenyl)-hydroxy-methyl]-3-ethyl-6-methoxy-pyrazolo[1,5-a]pyridine-5-carboxylic acid (1-ethyl-1H-[1,2,4]triazol-3-yl)-amide], the IC50 in series [1] and in series [2] was 1 to 10 nM in each case. Further, the MNT entry in series [3] was “A”.
Regarding `CCc1c(C(O)(c2ccccc2)c2ccccc2)nc2cc(F)c(C(=O)Nc3cnn(CC)c3)cn12` [Compound 15, 3-Ethyl-7-fluoro-2-(hydroxy-diphenylmethyl)-imidazo[1,2-a]pyridine-6-carboxylic acid (1-ethyl-1H-pyrazol-4-yl)-amide], the IC50 in series [1] and in series [2] was 10 to 100 nM each time. For the same compound, the MNT result in series [3] is on record as “A”.
As for `CCc1c(C(O)(c2ccccc2)c2ccn(C)n2)nc2cc(OC)c(C(=O)Nc3ncn(CC)n3)cn12` (single isomer, unassigned) [Compound 22, 3-Ethyl-2-[hydroxy-(1-methyl-1H-pyrazol-3-yl)-phenyl-methyl]-7-methoxy-imidazo[1,2-a]pyridine-6-carboxylic acid (1-ethyl-1H-[1,2,4]triazol-3-yl)-amide], the IC50 in series [1] and in series [2] was 10 to 100 nM in each case. Moreover, the MNT result in series [3] is “A”.
As for `CCc1c(C(O)(c2ccccc2)c2ccccn2)nc2cc(OC)c(C(=O)Nc3ncn(CC)n3)cn12` (single isomer, unassigned) [Compound 18, 3-ethyl-N-(1-ethyl-1,2,4-triazol-3-yl)-2-[hydroxy-phenyl-(2-pyridyl)methyl]-7-methoxy-imidazo[1,2-a]pyridine-6-carboxamide], the IC50 in series [1] and in series [2] was 100 to 10000 nM each time. For the same compound, in series [3], the MNT entry is recorded as “A”.
On to `CCn1c(C(O)(c2ccccc2)c2ccccc2)nc2nc(OC)c(C(=O)Nc3ncn(CCOC)n3)cc21` [Compound 68, 1-ethyl-2-(hydroxydiphenylmethyl)-5-methoxy-N-[1-(2-methoxyethyl)-1H-1,2,4-triazol-3-yl]-1H-imidazo[4,5-b]pyridine-6-carboxamide], for which the IC50 lay in the range of 100 to 10000 nM in series [4], 10 to 100 nM in series [1] and 10 to 100 nM in series [2].
On to `CCc1nnc(CNC(=O)c2cc3c(nc2OC)nc(C(O)(c2ccccc2)c2ccccc2)n3CC)o1` [Compound 62, 1-ethylN-[(5-ethyl-1,30,4-oxadiazol-2-yl)methyl]-2-(hydroxydiphenylmethyl)-5-methoxy-1H-imidazo[4,5-b]pyridine-6-carboxamide], for which the IC50 in series [4] fell in the range of 1 to 10 nM; in series [1], 10 to 100 nM; in series [2], 10 to 100 nM.
For `CCc1c(C(O)(c2ccccc2F)c2ccccc2F)nc2cc(Cl)c(C(=O)Nc3cnn(CC)c3)cn12` [Compound 29, 2-[Bis-(2-fluoro-phenyl)-hydroxy-methyl]-7-chloro-3-ethyl-imidazo[1,2-a]pyridine-6-carboxylic acid (1-ethyl-1H-pyrazol-4-yl)-amide], the IC50 in series [1] and in series [2] was 10 to 100 nM each time. Further, in series [3], the MNT result is on record as “A”.
Consider `CCn1c(C(O)(c2ccccc2)c2ccccn2)nc2nc(OC)c(C(=O)Nc3ncn(CCOC)n3)cc21` (racemic) [Compound 65, 1-ethyl-2-[hydroxy(phenyl)(pyridin-2-yl)methyl]-5-methoxy-N-[1-(2-methoxyethyl)-1H-1,2,4-triazol-3-yl]-1H-imidazo[4,5-b]pyridine-6-carboxamide], for which the values for the IC50 in series [4], in series [1] and in series [2] were 10 to 100 nM, 100 to 10000 nM and 1 to 10 nM, respectively.
The like results for `CCn1cnc(NC(=O)c2cc3c(nc2OC)nc(C(O)(c2ccc(OC(F)F)cc2)c2ccccc2F)n3CC)n1` (single isomer, unassigned) [Compound 75] were, in that order, 0.01 to 1 nM, 0.01 to 1 nM and 1 to 10 nM.
Taken in the same sequence, the figures for `CCn1cnc(NC(=O)c2cc3c(nc2OC)nc(C(O)(c2ccccc2)c2ccccc2)n3CC)c1` [Compound 76, 1-ethyl-N-(1-ethyl-1H-imidazol-4-yl)-2-(hydroxydiphenylmethyl)-5-methoxy-1H-imidazo[4,5-b]pyridine-6-carboxamide] were 1 to 10 nM, 1 to 10 nM and 1 to 10 nM.
Consider `CCn1cnc(NC(=O)c2cc3c(nc2OC)nc(C(O)(c2ccccc2)c2ccccc2)n3CCO)n1` [Compound 50, N-(1-ethyl-1H-1,2,4-triazol-3-yl)-2-(hydroxydiphenylmethyl)-1-(2-hydroxyethyl)-5-methoxy-1H-imidazo[4,5-b]pyridine-6-carboxamide], for which the results for the IC50 in series [4], in series [1] and in series [2] were 100 to 10000 nM, 1 to 10 nM and 1 to 10 nM, respectively.
Regarding `CCc1c(C(O)(c2ccccc2)c2ccn(C)n2)nc2cc(OC)c(C(=O)Nc3ncn(CC)n3)cn12` (single isomer, unassigned) [Compound 21, 3-Ethyl-2-[hydroxy-(1-methyl-1H-pyrazol-3-yl)-phenyl-methyl]-7-methoxy-imidazo[1,2-a]pyridine-6-carboxylic acid (1-ethyl-1H-[1,2,4]triazol-3-yl)-amide], in series [1], the IC50 lay in the range of 100 to 10000 nM. The MNT result in series [3] was “A”.
